Like-named read-outs stand apart in the source and are kept apart here. Marks after values point to notes of the source that are not given here. Blank lines part the entries; values can stand above or below the compound they belong to.
Legend:
obese Zucker rats = settings: 5 mg/kg/day, cited from earlier work
[1] = Excipient compatibility study for diazoxide choline salt; type: physicochemical
[2] = Moisture sorption analysis; type: physicochemical
Protocol: Moisture Sorption Analysis was performed with a Hiden IGAsorp Moisture Sorption Instrument, Samples were first dried at 0% relative humidity at 25° C. until an equilibrium weight was reached, or for a maximum of 4 hours. Samples were then subjected to an isothermal (25° C.) scan from 10-90% relative humidity in steps of 10%. The samples were allowed to equilibrate to an asymptotic weight at each point for a maximum of 4 hours. Following absorption, a desorption scan from […] relative humidity (at 25° C.) was run in steps of −10%, again allowing a maximum of 4 hours for the samples to equilibrate. The resulting samples after desorption were dried at 80° C. for two hours and analyzed by XRPD.

[3] = Form conversion and degradation under thermal stress (60° C.); settings: for Thermal: 7 days
Protocol: Studies were also conducted to evaluate the likelihood for conversion and degradation under thermal stress.

[4] = Polymorph screening crystallizations and characterization of forms (XRPD, DSC, TGA); type: physicochemical; settings: for TGA: data indicates a half-molar equivalent of acetone, water, or dioxane for Forms C, D, F
Protocol: DSC analysis were conducted with a Mettler 822 DSC, by measuring the amount of energy released by a sample, as the sample was heated from 30° C. to between 300-500° C. at a rate of 10° C./min. Typical applications of DSC analysis include determination of melting point temperature and the heat of melting; measurement of the glass transition temperature; curing and crystallization studies; and identification of phase transformations.
TGA measurements were conducted with a Mettler 851 SDTA/TGA, by measuring weight loss as a function of increasing temperature, as the samples were heated from 30° C. to 230° C. at a rate of 10° C./min. The TCA can be used to analyze desorption and decomposition behavior, characterize oxidation behavior, set burnout or conditioning parameters (temperature/ramp rate/time), and determine chemical composition.
XRPD samples were analyzed with a Shimadzu XRD-6000 system, using a Cu Kα, 40 kV, 40 mA X-ray tube. The divergence and scatter slits were 1.00 deg, and the receiving slit was 0.30 mm. Samples were continuously scanned at a range of 3.0-45.0 deg, with a step size of 0.04 deg., at a scan rate of 2 deg/min.
After hot filtration the vials were placed in a refrigerator (4° C.) for 16 hours. […] All solids were dried in vacuo at ambient temperature and 30 in. Hg.
After hot filtration the vials were then slowly cooled to room temperature at the rate of 20° C./h and stirred at room temperature for 1-2 hours. All solids were dried in vacuo at ambient temperature and 30 in. Hg.
Solvents for crystallizations were chosen based on the solubility screen summarized below.

Zucker rats = settings: oral 1-10 mg/kg/day, 14 days; cited from earlier work
high-fructose diet rats = settings: rat, in vivo; cited from earlier work
healthy volunteers [5] = test system: healthy volunteers
Protocol: (§1) A randomized double-blind, placebo-controlled clinical trial was conducted in 24 healthy volunteers. They were randomized in a 2:1 ratio of treated to placebo. […] The dose was administered once per day in the morning for a period of 7 days. A number of lipid parameters were measured at baseline and again on day 7 including fasting triglycerides, total cholesterol, LDL cholesterol, HDL cholesterol, and non-HDL cholesterol. Additionally, blood pressure was measured on a daily basis.

[6] = Slurry studies of inter-conversion of the solid form; settings: n-heptane, dichloromethane; for inter-conversion of the solid form in slurry: room temperature, 7 and 14 days, toluene (Table 16 Form B: CH2Cl2, THF, t-AmOH)
[7] = pH 2
Protocol: Solubility concentrations were determined using area-percent calculations with HPLC calibration curves.

healthy volunteers [8] = test system: healthy volunteers; remark: listed apart in the source
Protocol: as §1
In PK008, the dose was administered as one and one ½ tablet formulation K′.

[9] = test system: hypertriglyceridemic patients; assay: Crossover of formulations U and K′ (435 mg/day diazoxide choline): lipid responses; type: in vivo, human; settings: 15 days, 435 mg/day diazoxide choline once daily
Protocol: (§2) A clinical study was conducted in 12 hypertriglyceridemic patients. […] Treatment continued for 16 days. The endpoint of the study was percentage change from baseline to day 15 of triglycerides, total cholesterol, LDL cholesterol, HDL cholesterol and non-HDL cholesterol. Lipid parameters were measured at baseline and on days 7 and 15. Blood pressure was collected at multiple time points.

[10] = mouse, in vivo; for AUC0-6: 50 mg/kg
[11] = test system: hypertriglyceridemic patients
Protocol: as §2, with “After day 8 they were crossed over from one formulation to the other formulation. […]” for “Treatment continued for 16 days.”

[12] = 300 mg diazoxide/day, formulation U
[13] = baseline to day 7, 300 mg diazoxide/day as formulation U
[14] = Study EC004, 435 mg diazoxide choline, 7 days
[15] = Study TR002, 508 mg diazoxide choline, 49 days
[16] = 25° C., listed as Potassium diazoxide salt
[17] = 60° C., closed, protected from light, 7 and 14 days

Structure (SMILES): Cl.N#CN=C(Nc1ccc(N)nc1)N[C@@H]1C[C@@H]2CC[C@H]1C2 [AL0671, (+)—N-(6-amino-3-pyridil)-N′-[(1S,2R,4R)-bicyclo-[2.2.1]hept-2-yl]-N″-cyanoguanidine hydrochloride]
serum total triglyceride, chylomicron and very-low-density lipoprotein levels (obese Zucker rats; 1 or 2 weeks): significantly decrease
increase of hepatic triglyceride lipase activities (obese Zucker rats; postheparin plasma): 3 fold
increase of lipoprotein lipase activities (obese Zucker rats; postheparin plasma): 4 fold

diazoxide choline salt assayed in mixture with excipient ([1]; 1 Month 40° C./75% RH): 99.0 % (w/w)
diazoxide choline salt assayed in mixture with excipient ([1]; 1 Month 50° C.): 99.4 % (w/w)
Structure (SMILES): CC1=Nc2ccc(Cl)cc2S(=O)(=O)N1 [Diazoxide Control]

Structure (SMILES): CC1=NS(=O)(=O)c2cc(Cl)ccc2[N-]1.[K+] [Diazoxide potassium Form C]
Moisture Sorption [2]: Hygroscopic -
Moisture Sorption: deliquesced at [2]: deliquesced at 90% RH
Thermal [3]: Stable (7 days)
XRPD [4]: Crystalline
TGA [4]: 8.4%**

Structure (SMILES): CC1=NS(=O)(=O)c2cc(Cl)ccc2[N-]1.[K+] [Diazoxide potassium Form D]
Moisture Sorption [2]: Hygroscopic -
Moisture Sorption: deliquesced at [2]: deliquesced at 90% RH
Thermal [3]: Stable (7 days)
XRPD [4]: Crystalline
TGA [4]: 4.5%**

Structure (SMILES): CC1=NS(=O)(=O)c2cc(Cl)ccc2[N-]1.[K+] [Diazoxide potassium Form F]
Thermal [3]: Stable (7 days)
XRPD [4]: Crystalline
TGA [4]: 13.1%**

Structure (SMILES): N#CNC(=NCCc1ccccc1Cl)c1cncc(N)c1 [KRN4884]
serum insulin and glucose levels (Zucker rats): no change
serum triglyceride levels (Zucker rats): dose dependently reduce
Hepatic triglyceride lipase activity (high-fructose diet rats): not affected
lipoprotein lipase (LPL) activity in muscle (high-fructose diet rats): significantly increased

hydrate formation (hysteresis upon desorption) ([2]; 25° C.): does not form a stable hydrate
Moisture Sorption (hygroscopicity) ([2]; 25° C., listed as Choline diazoxide salt): deliquescent -
Moisture Sorption (hygroscopicity) ([2]; 25° C., listed as choline salt of diazoxide): hygroscopic
moisture absorbed ([2]; 80% relative humidity, 25° C.): over 28%
crystalline form after moisture sorption/desorption (XRPD) ([2]; listed as choline salt of diazoxide): changed to an alternate crystalline form
inter-conversion of the solid form in slurry ([6]; listed as Choline Diazoxide Salt): no propensity of inter-conversion
solid form after the solubility analysis (XRPD) [7]: changed back to the free form diazoxide
degradation under thermal stress (HPLC gradient area percent) [3]: did not show any significant degradation
Absolute oral bioavailability [10]: 100%
AUC0-6 ([10]; iv): 137.176 µg·h/mL
AUC0-6 ([10]; po): 141.26 µg·h/mL
Structure (SMILES): CC1=Nc2ccc(Cl)cc2S(=O)(=O)[N-]1.C[N+](C)(C)CCO [diazoxide choline]
HDL cholesterol, Percent change from base-line (healthy volunteers [5]; 300 mg diazoxide/day, 7 days): 8.2%
LDL cholesterol, Percent change from base-line (healthy volunteers [5]; 300 mg diazoxide/day, 7 days): −5.4%
Total cholesterol, Percent change from base-line (healthy volunteers [5]; 300 mg diazoxide/day, 7 days): −2.3%
Triglycerides, Percent change from base-line (healthy volunteers [5]; 300 mg diazoxide/day, 7 days): −13.2%
non-HDL cholesterol, Percent change from base-line (healthy volunteers [5]; 300 mg diazoxide/day, 7 days): −6.3%
HDL cholesterol, Baseline mean ± SEM (healthy volunteers [5]; [12]): 49 ± 3.3 mg/dL
HDL cholesterol, Day 7 mean ± SEM (healthy volunteers [5]; [12]): 53 ± 2.9 mg/dL
LDL cholesterol, Baseline mean ± SEM (healthy volunteers [5]; [12]): 111 ± 5.8 mg/dL
LDL cholesterol, Day 7 mean ± SEM (healthy volunteers [5]; [12]): 105 ± 4.9 mg/dL
Total cholesterol, Baseline mean ± SEM (healthy volunteers [5]; [12]): 175 ± 7.5 mg/dL
Total cholesterol, Day 7 mean ± SEM (healthy volunteers [5]; [12]): 171 ± 6.4 mg/dL
Triglycerides, Baseline mean ± SEM (healthy volunteers [5]; [12]): 76 ± 7.8 mg/dL
Triglycerides, Day 7 mean ± SEM (healthy volunteers [5]; [12]): 66 ± 3.9 mg/dL
non-HDL cholesterol, Baseline mean ± SEM (healthy volunteers [5]; [12]): 126 ± 6.6 mg/dL
non-HDL cholesterol, Day 7 mean ± SEM (healthy volunteers [5]; [12]): 118 ± 5.5 mg/dL
increase HDL cholesterol (healthy volunteers [5]; [13]): 8.2%
reduction in total cholesterol, LDL cholesterol and non-HDL cholesterol versus placebo arm (healthy volunteers [5]; [13]): reduction in the diazoxide choline treated arm was greater
reduction of triglycerides (healthy volunteers [5]; [13]): 13.2%
form conversion and degradation under thermal stress (XRPD, DSC) [3]: consistent with the starting material, as well as the presence of additional unique peaks
reduction in diastolic blood pressure (healthy volunteers [8]; 7 days, 300 mg diazoxide/day as formulation U, healthy volunteers): 6.2 mmHg
Diastolic blood pressure, Baseline (healthy volunteers [8]; [14]): 69.4 mmHg
Diastolic blood pressure, End of treatment (healthy volunteers [8]; [14]): 63.2 mmHg
Systolic blood pressure, Baseline (healthy volunteers [8]; [14]): 113.2 mmHg
Systolic blood pressure, End of treatment (healthy volunteers [8]; [14]): 113.5 mmHg
Diastolic blood pressure, Baseline (healthy volunteers [8]; [15]): 77.7 mmHg
Diastolic blood pressure, End of treatment (healthy volunteers [8]; [15]): 67.0 mmHg
Systolic blood pressure, Baseline (healthy volunteers [8]; [15]): 118.1 mmHg
Systolic blood pressure, End of treatment (healthy volunteers [8]; [15]): 117.0 mmHg
HDL cholesterol [9]: marked increase
triglycerides, total cholesterol, LDL cholesterol and nonHDL cholesterol [9]: marked reductions
average drop in standing blood pressure ([11]; 7 days of treatment): ~8 mmHg
standing diastolic blood pressure ([11]; after 7 days of treatment, baseline 80): 75.5 mmHg
standing systolic blood pressure ([11]; after 7 days of treatment, baseline 123): 112 mmHg
supine diastolic blood pressure ([11]; after seven days of treatment, baseline 69): 62.5 mmHg
supine systolic blood pressure ([11]; after seven days of treatment, baseline 121): 116 mmHg
average drop in supine blood pressure ([11]; seven days of treatment): ~6 mmHg

Structure (SMILES): CC1=NS(=O)(=O)c2cc(Cl)ccc2[N-]1.[K+] [potassium salt of diazoxide]
crystalline form after moisture sorption/desorption (XRPD) [2]: changed to an alternate crystalline form
Moisture Sorption (hygroscopicity) ([2]; 25° C.): hygroscopic
hydrate formation (hysteresis upon desorption) ([2]; 25° C.): hemihydrate from 0-30% RH and a monohydrate from 35-75% RH
Moisture Sorption (hygroscopicity) [2, 16]: deliquescent -
hydrate formation (hysteresis upon desorption) [2, 16]: hemi/monohydrate
water absorbed ([2]; 60% RH, 25° C.): 5.4 wt %
water absorbed ([2]; 90% RH, 25° C.): 38.3 wt %
degradation after slurry study (HPLC gradient area percent) ([6]; toluene, 14 days): did not show any significant degradation
inter-conversion of the solid form in slurry [6]: no propensity of inter-conversion
solid form after the solubility analysis (XRPD) [7]: changed back to the free form diazoxide
degradation under thermal stress (HPLC gradient area percent) ([3]; 60° C., 14 days): did not show any significant degradation
form conversion and degradation under thermal stress (XRPD, DSC) [3, 17]: showed unique peaks
Form ([4]; Table 26, slow cooling, Water): Free form
Form ([4]; Table 30, single solvent, fast-cooling, MeCN): C + D

Structure (SMILES): CC1=NS(=O)(=O)c2cc(Cl)ccc2[N-]1.[Na+] [sodium salt of diazoxide]
Moisture Sorption (hygroscopicity) ([2]; 25° C.): hygroscopic
hydrate formation (hysteresis upon desorption) ([2]; 25° C.): possible hydrate formation
Moisture Sorption (hygroscopicity) ([2]; 25° C., listed as Sodium diazoxide salt): deliquescent -
water absorbed ([2]; 60% RH, 25° C.): 1.2 wt %
water absorbed ([2]; 80% RH, 25° C.): 6.6 wt %
inter-conversion of the solid form in slurry [6]: no propensity of inter-conversion
form conversion and degradation under thermal stress (XRPD, DSC) [3, 17]: little propensity to change form or degrade

Source: US20120238554A1, “SALTS OF POTASSIUM ATP CHANNEL OPENERS AND USES THEREOF” (priority 2007, published 2012)
